Results from patent US20250073202A1, “METHODS TO TREAT RENAL DISORDERS USING CALCIUM CHANNEL INHIBITORS” (The Trustees of Indiana University, priority 2018, published 2025).

Columns and labels:
[1] = test system: AKI-primed CD4+ cells; assay: In vitro stimulation of AKI-primed kidney CD4+ cells with Ang II and elevated Na+, IL17 response; type: cell-based, rat; conditions: inhibitor 10 μM; Ang II 10^-7 M and 170 mM Na+; 12-14 hours; cells 7 days post I/R
Procedure: Total RNA was obtained from kidney using Trizol and the Zymogen RNA extraction kit and cDNA was prepared using MMLV enzyme (Invitrogen, Carlsburg, CA). Quantitative real time PCR (qPCR) using gene specific primers was performed using ABI 7500 (Applied Biosystems, Foster City, CA). mRNA values were calculated using 2^−ΔΔCt. Specific primers sequences for IL-6 (catalog #Rn01410330_m1), Kim-1 (#Rn00597703_m1) and IL17 (Rn01757168_m1) were purchased from ThermoFisher (Waltham, MA).
To evaluate protein expression of IL17 or Orai1, Orai2 or Orai3, cells were restimulated with PMA and ionomycin for 6 hours in the presence of monensin (Golgistop, 1 μg·ml, BD Biosciences) permeabilized with saponin ([…]) and stained with relevant antibody. Cells were scanned using flow cytometry (FACSCalibur, BD Biosciences, San Jose, CA) and scans were analyzed using Flowjo software (Tree Star, Ashland, OR).
CD4+T cells were isolated using the MACS Pan-T cell microbead separation kit (Miltenyl, Glabach, Germany). T cells were stimulated with plate bound anti-CD3 (precoated with 2 μg/mL) and soluble anti-CD28 (1 μg/mL). Cells (2.5×10^5 in 0.25 ml) were incubated 12-14 hours at 37° C. in RPMI medium supplemented with 10% FBS (Invitrogen) in a 48-well plate. Cells were challenged with Ang II (Sigma, 10^−7M) and raising the extracellular Na+ from 140 mM to 170 mM, using a 1 M NaCl solution. Calcium channel inhibitors 2ABP (10 μM, Sigma) AnCoA4 (10 μM, Millipore, Burlington, MA) and YM58483/BTP2 (10 μM) were included to evaluate effects on IL-17.

[2] = test system: human blood CD4+ cells; assay: In vitro stimulation of human blood CD4+ cells from AKI patients with elevated sodium, IL17 response; type: cell-based; conditions: 170 mM Na+, overnight (~12 hours)
Procedure: For in vitro stimulation of human blood cells, primary T cells were isolated from fresh blood using Straight whole blood CD4 kit from Miltneyli Biotech (Miltenyli, San Diego, CA) according to manufactures' protocol. CD4+T cells were plated at a density of 1×10^6 cells/mL in RPMI medium supplemented with FBS. Cells were stimulated with human anti-CD3/CD28 dynabeads (Gibco; Catalogue no 11161D) along with labeled treatment overnight (˜12 hours). T cells were harvested and incubated with monensin for 6 hours, prior to staining for IL-17 (Table 4).

In the case of `Cc1nnsc1C(=O)Nc1ccc(-n2nc(C(F)(F)F)cc2C(F)(F)F)cc1` [YM58483/BPT2, N-[4-[3,5-Bis(trifluoromethyl)-1H-pyrazol-1-yl]phenyl]-4-methyl-1,2,3-thiadiazole-5-carboxamide], the “increase in IL17+ cells (IL17 protein, FACS)” value [1] is reported as “completely blocked”, the “increase of IL17 mRNA” value [1] is reported as “completely blocked” and the “IL17 response to elevated extracellular sodium” value [2] is reported as “inhibited”.
